Experiment [1] deals with T1, hSCN3A (Homo sapiens, UniProt Q9NY46).
T1 construct: expressed in transfected cells
Briefly: Whole-cell patch-clamp electrophysiology (conventional or PatchXpress), HEK cells expressing hSCN3A, estimated IC-50. Format: cell-based. Particulars: Table V; estimated IC-50 from single point electrophysiology, cells clamped at V1/2; read-out: SCN3A EIC-50. On the procedure: Human Embryonic Kidney (HEK) cells were transfected with hSCN3A or hSCN9A constructs using lipofectamine reagent (Invitrogen), using standard techniques. Cells stably expressing the hSCN3A or hSCN9A constructs were identified by their resistance to G-418 (400 μg/ml). Clones were screened for expression using the whole-cell voltage-clamp technique. HEK cells stably transfected with hSCN3A or hSCN9A were maintained in DMEM medium supplemented with 10% heat-inactivated fetal bovine serum and 400 μg/ml G418 sulfate in an incubator at 37° C. with a humidified atmosphere of 10% CO2. For HTS, cells were harvested from flasks by trypsinization and replated in an appropriate multi-well plate (typically 96 or 384 wells/plate) such that confluence would be achieved within 24 hours of plating. For electrophysiological studies, cells were removed from the culture flask by brief trypsinization and replated at low density onto glass cover slips. Cells were typically used for electrophysiological experiments within 24 to 72 h after plating. Cover slips containing HEK cells expressing hSCN3A or hSCN9A were placed in a bath on the stage of an inverted microscope and perfused (approximately 1 ml/min) with extracellular solution of the following composition: 138 mM NaCl, 2 mM CaCl2, 5.4 mM KCl, 1 mM MgCl2, 10 mM glucose, and 10 mM HEPES, pH 7.4, with NaOH. […] All recordings were made at room temperature (22-24° C.) using AXOPATCH 200B amplifiers and PCLAMP software (Axon Instruments, Burlingame, Calif.) or PatchXpress 7000 hardware and associated software (Axon Instruments, Burlingame, Calif.). hSCN3A or hSCN9A currents in HEK cells were measured using the whole-cell configuration of the patch-clamp technique (Hamill et al., 1981). […] As a result, voltage errors were negligible and no correction was applied. Current records were acquired at 20 to 50 KHz and filtered at 5 to 10 KHz. HEK cells stably transfected with hSCN3A or hSCN9A were viewed under Hoffman contrast optics and placed in front of an array of flow pipes emitting either control or compound-containing extracellular solutions. All compounds were dissolved in dimethyl sulfoxide to make 10 mM stock solutions, which were then diluted into extracellular solution to attain the final concentrations desired. […] The voltage-dependence of inactivation was determined by applying a series of depolarizing prepulses (8 sec long in 10 mV increments) from a negative holding potential. The voltage was then immediately stepped to 0 mV to assess the magnitude of the sodium current. Currents elicited at 0 mV were plotted as a function of prepulse potential to allow estimation of the voltage midpoint of inactivation (V1/2). Cells were then voltage clamped at the empirically determined V1/2. Compounds were tested for their ability to inhibit hSCN3A or hSCN9A sodium channels by activating the channel with a 20 msec voltage step to 0 mV following an 8 second conditioning prepulse to the empirically determined V1-2 (Table B). Compound effect (% inhibition) was determined by difference in current amplitude before and after application of test compounds. […] In some cases electrophysiological assays were conducted with PatchXpress 7000 hardware and associated software (Molecular Devices Corp) (Table B). All assay buffers and solutions were identical to those used in conventional whole-cell voltage clamp experiments described above. hSCN3A or hSCN9A containing cells were grown as above to 50%-80% confluency and harvested by trypsinization. Trypsinized cells were washed and resuspended in extracellular buffer at a concentration of 1×10^6 cells/ml. The onboard liquid handling facility of the PatchXpress was used for dispensing cells and application of test compounds. Determination of the voltage midpoint of inactivation was as described for conventional whole-cell recordings. Cells were then voltage-clamped to the empirically determined V1/2 and current was activated by a 20 msec voltage step to 0 mV.

In experiment [2] the target is T2, hSCN9A (Homo sapiens, UniProt Q15858).
T2 construct: expressed in transfected cells
T2 sequence (Q15858 whole entry): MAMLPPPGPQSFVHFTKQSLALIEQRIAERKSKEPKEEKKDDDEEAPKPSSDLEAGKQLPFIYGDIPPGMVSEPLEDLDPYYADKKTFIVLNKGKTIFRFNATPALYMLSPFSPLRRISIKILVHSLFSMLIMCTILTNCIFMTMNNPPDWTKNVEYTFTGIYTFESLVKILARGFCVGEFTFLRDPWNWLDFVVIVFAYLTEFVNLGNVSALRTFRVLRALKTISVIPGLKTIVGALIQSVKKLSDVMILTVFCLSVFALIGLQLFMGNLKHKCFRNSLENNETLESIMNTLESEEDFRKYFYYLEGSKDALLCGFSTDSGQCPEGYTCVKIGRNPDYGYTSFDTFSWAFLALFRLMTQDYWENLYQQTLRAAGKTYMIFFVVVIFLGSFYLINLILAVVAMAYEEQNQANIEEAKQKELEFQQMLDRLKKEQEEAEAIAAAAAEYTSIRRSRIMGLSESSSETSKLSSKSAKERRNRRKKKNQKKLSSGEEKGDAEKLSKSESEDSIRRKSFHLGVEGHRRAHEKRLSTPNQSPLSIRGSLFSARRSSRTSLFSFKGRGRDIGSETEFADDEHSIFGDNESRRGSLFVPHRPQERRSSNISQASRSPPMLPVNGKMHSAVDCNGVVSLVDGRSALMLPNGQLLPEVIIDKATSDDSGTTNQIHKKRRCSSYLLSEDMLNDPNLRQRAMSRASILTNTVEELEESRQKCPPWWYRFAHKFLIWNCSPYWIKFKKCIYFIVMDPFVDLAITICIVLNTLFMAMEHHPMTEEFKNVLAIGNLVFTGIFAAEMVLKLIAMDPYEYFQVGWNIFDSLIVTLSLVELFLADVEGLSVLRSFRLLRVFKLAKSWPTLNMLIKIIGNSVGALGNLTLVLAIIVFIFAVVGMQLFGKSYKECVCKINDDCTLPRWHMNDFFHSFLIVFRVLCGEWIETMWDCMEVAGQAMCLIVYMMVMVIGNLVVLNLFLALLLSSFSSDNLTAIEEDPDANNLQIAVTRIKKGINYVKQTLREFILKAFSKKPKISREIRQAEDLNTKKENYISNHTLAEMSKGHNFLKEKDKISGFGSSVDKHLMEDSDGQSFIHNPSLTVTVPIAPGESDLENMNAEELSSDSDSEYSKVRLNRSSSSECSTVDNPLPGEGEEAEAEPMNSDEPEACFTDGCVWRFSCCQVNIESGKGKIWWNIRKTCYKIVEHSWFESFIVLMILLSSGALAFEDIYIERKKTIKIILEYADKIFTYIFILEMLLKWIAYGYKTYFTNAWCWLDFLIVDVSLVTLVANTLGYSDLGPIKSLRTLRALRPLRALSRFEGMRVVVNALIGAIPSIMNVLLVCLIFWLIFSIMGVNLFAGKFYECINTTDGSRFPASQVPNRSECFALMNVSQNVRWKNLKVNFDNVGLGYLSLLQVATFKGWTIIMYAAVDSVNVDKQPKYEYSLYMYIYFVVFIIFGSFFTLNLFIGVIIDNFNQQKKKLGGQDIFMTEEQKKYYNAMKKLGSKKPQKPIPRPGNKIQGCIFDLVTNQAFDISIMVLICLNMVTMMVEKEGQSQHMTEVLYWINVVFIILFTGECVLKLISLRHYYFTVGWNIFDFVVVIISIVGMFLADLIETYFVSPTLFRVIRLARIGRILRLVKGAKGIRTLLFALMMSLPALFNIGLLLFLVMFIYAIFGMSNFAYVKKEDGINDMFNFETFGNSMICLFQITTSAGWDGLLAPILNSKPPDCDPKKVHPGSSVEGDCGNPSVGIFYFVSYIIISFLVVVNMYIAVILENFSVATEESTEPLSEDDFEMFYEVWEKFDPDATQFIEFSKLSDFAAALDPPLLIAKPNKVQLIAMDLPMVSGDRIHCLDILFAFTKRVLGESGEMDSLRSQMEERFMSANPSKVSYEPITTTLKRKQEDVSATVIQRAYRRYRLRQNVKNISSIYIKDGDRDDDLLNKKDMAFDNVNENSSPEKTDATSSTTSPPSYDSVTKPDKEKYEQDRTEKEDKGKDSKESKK
Briefly: Whole-cell patch-clamp electrophysiology (conventional or PatchXpress), HEK cells expressing hSCN9A, estimated IC-50. Format: cell-based. Particulars: Table V; estimated IC-50 from single point electrophysiology, cells clamped at V1/2; read-out: SCN9A EIC-50. The method, boiled down:
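Current through each channel was evoked by a 20 ms step to 0 mV following an 8 s conditioning prepulse at the cell's own half-inactivation voltage. Recordings used HEK lines stably expressing the channel, conventional or PatchXpress patch clamp, room temperature, pH 7.4 bath; inhibition taken as pre/post-compound amplitude change.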

T1 sequence (Q9NY46 whole entry): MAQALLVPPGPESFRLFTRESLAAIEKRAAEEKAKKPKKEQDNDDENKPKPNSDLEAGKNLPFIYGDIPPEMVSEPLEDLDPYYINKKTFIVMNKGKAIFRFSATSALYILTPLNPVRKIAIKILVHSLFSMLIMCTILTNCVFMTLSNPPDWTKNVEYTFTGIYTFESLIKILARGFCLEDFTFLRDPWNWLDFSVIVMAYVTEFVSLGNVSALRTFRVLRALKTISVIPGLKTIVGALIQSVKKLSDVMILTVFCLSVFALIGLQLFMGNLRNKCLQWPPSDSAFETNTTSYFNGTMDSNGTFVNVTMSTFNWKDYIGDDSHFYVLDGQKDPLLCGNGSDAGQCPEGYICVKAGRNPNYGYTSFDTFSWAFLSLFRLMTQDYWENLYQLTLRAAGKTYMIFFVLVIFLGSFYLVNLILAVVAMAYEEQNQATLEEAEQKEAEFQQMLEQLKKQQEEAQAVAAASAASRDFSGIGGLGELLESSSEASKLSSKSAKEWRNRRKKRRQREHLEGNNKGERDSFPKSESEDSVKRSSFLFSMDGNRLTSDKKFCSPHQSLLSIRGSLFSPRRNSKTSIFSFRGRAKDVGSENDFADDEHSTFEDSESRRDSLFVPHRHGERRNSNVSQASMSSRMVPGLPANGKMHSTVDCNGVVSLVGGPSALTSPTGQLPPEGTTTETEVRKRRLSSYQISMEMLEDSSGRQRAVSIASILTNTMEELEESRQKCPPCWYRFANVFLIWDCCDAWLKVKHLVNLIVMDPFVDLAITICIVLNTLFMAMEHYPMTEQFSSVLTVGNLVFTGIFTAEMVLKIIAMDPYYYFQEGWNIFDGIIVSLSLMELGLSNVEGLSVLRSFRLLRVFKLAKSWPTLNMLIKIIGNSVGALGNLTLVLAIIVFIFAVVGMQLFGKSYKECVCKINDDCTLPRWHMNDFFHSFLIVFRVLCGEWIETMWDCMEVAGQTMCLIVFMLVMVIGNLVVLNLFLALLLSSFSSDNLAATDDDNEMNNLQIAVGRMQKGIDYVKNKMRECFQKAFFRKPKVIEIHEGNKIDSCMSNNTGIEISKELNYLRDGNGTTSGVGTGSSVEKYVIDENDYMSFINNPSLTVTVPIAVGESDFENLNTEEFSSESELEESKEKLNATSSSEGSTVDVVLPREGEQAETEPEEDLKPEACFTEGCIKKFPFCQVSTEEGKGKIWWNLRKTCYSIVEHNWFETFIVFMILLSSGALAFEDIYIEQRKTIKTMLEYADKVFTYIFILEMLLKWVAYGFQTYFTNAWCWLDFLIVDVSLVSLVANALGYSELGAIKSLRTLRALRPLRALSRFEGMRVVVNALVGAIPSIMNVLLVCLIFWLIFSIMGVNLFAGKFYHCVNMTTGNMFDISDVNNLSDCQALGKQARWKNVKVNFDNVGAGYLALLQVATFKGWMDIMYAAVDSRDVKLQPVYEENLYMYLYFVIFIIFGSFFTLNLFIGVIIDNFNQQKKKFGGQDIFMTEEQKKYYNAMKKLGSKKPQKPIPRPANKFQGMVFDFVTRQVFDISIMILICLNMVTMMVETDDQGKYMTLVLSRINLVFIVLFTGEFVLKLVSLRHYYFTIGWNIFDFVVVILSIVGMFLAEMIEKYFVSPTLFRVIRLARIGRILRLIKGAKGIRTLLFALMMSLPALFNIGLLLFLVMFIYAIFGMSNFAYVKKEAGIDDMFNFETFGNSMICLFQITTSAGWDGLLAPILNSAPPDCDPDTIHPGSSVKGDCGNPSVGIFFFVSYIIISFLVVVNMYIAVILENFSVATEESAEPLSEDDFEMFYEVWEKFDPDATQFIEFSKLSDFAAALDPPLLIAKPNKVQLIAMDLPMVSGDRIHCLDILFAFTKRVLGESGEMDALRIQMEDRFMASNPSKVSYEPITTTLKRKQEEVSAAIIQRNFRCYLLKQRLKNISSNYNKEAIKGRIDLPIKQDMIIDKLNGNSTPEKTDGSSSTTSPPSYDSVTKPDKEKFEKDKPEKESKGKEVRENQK

For the compound `CN(c1ccc(S(=O)(=O)Nc2nccs2)c(F)c1)c1nc(Cc2ccc(Cl)cc2)cs1` [Compound 6, 4-[4-(4-Chloro-benzyl)-thiazol-2-yl]-methyl-amino-2-fluoro-N-thiazol-2-yl-benzenesulfonamide], the IC50 in experiment [1] and in experiment [2] was 2000 to 10000 nM throughout.

Consider `CC(C)(C)c1csc(Nc2ccc(S(=O)(=O)Nc3nccs3)c(F)c2)n1` [Compound 7, 4-(4-Tert-butyl-thiazol-2-ylamino)-2-fluoro-N-thiazol-2-yl-benzenesulfonamide], for which the IC50 is under 2000 nM in experiment [1] and 2000 to 10000 nM in experiment [2].

Consider `Cc1nc(Nc2ccc(S(=O)(=O)Nc3nccs3)cc2)sc1C(C)(C)C` [Compound 8, 4-(5-Tert-butyl-4-methylthiazol-2-ylamino)-N-(thiazol-2-yl)benzenesulfonamide], for which the IC50 in experiment [1] and in experiment [2] was under 2000 nM throughout.

Take `CC(=O)c1sc(Nc2ccc(S(=O)(=O)Nc3nccs3)c(F)c2)nc1C` [Compound 9, 4-(5-Acetyl-4-methyl-thiazol-2-ylamino)-2-fluoro-N-thiazol-2-yl-benzenesulfonamide]: the IC50 in experiment [1] and in experiment [2] was 2000 to 10000 nM throughout.

As to `CC(C)(C)c1csc(Nc2ccc(S(=O)(=O)Nc3nccs3)c(Cl)c2)n1` [Compound 10, 4-(4-Tert-butyl-thiazol-2-ylamino)-2-chloro-N-thiazol-2-yl-benzenesulfonamide], the IC50 in experiment [1] is under 2000 nM; in experiment [2], 2000 to 10000 nM.

As to `CC(C)(C)c1csc(Nc2ccc(S(=O)(=O)Nc3nccs3)c(OC(F)(F)F)c2)n1` [Compound 11, 4-(4-tert-Butyl-thiazol-2-ylamino)-N-thiazol-2-yl-2-trifluoromethoxy-benzenesulfonamide], the IC50 in experiment [1] and in experiment [2] was 2000 to 10000 nM each time.

With `CC(C)(C)c1csc(Nc2ccc(S(=O)(=O)Nc3nccs3)c3ccccc23)n1` [Compound 12, 4-(4-tert-Butyl-thiazol-2-ylamino)-naphthalene-1-sulfonic acid thiazol-2-ylamide], the IC50 is under 2000 nM in experiment [1] and 2000 to 10000 nM in experiment [2].

Consider `Cc1nc(Nc2ccc(S(=O)(=O)Nc3nccs3)c(F)c2)sc1C(C)(C)C` [Compound 13, 4-(5-tert-butyl-4-methylthiazol-2-ylamino)-2-fluoro-N-(thiazol-2-yl)benzenesulfonamide], for which the IC50 in experiment [1] and in experiment [2] was under 2000 nM in each case.

Regarding `CC(C)(C)c1csc(Nc2ccc(S(=O)(=O)Nc3nccs3)cc2)n1` [Compound 14, 4-(4-Tert-butyl-thiazol-2-ylamino)-N-thiazol-2-yl-benzenesulfonamide], the IC50 in experiment [1] is under 2000 nM; in experiment [2], 2000 to 10000 nM.

On to `CC(C)(C)n1nc(Cc2ccc(Cl)cc2)cc1Nc1ccc(S(=O)(=O)Nc2nccs2)cc1` [Compound 15, 4-(1-tert-butyl-3-(4-chlorobenzyl)-1H-pyrazol-5-ylamino)-N-(thiazol-2-yl)benzenesulfonamide], for which the IC50 in experiment [1] and in experiment [2] was under 2000 nM each time.

In the case of `O=S(=O)(Nc1nccs1)c1ccc(Nc2cc(Cc3ccc(Cl)cc3)n[nH]2)cc1` [Compound 16, 4-(3-(4-Chlorobenzyl)-1H-pyrazol-5-ylamino)-N-(thiazol-2-yl)benzenesulfonamide], the IC50 in experiment [1] and in experiment [2] was under 2000 nM throughout.

In the case of `Cn1nc(C(C)(C)C)cc1Nc1ccc(S(=O)(=O)Nc2nccs2)cc1` [Compound 17, 4-(3-Tert-butyl-1-methyl-1H-pyrazol-5-ylamino)-N-(thiazol-2-yl)benzenesulfonamide], the results for the IC50 in experiment [1] and in experiment [2] were under 2000 nM and 2000 to 10000 nM, respectively.

In the case of `CC(C)(C)c1cc(Nc2ccc(S(=O)(=O)Nc3nccs3)cc2)no1` [Compound 18], the IC50 was under 2000 nM in experiment [1] and over 10000 nM in experiment [2].

For `CC(C)(C)n1nc(Nc2ccc(S(=O)(=O)Nc3nccs3)cc2)nc1N` [Compound 19, 4-(5-Amino-1-tert-butyl-1H-1,2,4-triazol-3-ylamino)-N-(thiazol-2-yl)benzenesulfonamide], the IC50 is under 2000 nM in experiment [1] and over 10000 nM in experiment [2].

For the compound `Cc1cc(Nc2ccc(S(=O)(=O)Nc3nccs3)cc2)n(-c2ccccc2)n1` [Compound 20, 4-(3-methyl-1-phenyl-1H-pyrazol-5-ylamino)-N-(thiazol-2-yl)benzenesulfonamide], the IC50 in experiment [1] is under 2000 nM; in experiment [2] it was 2000 to 10000 nM.

Turning to `Cn1nc(Cc2ccc(Cl)cc2)cc1Nc1ccc(S(=O)(=O)Nc2nccs2)cc1` [Compound 21, 4-(3-(4-Chlorobenzyl)-1-methyl-1H-pyrazol-5-ylamino)-N-(thiazol-2-yl)benzenesulfonamide], the IC50 in experiment [1] and in experiment [2] was under 2000 nM each time.

With `CC(C)(C)c1cc(Nc2ccc(S(=O)(=O)Nc3nccs3)cc2)n(C(C)(C)C)n1` [Compound 22, 4-(1,3-di-tert-butyl-1H-pyrazol-5-ylamino)-N-(thiazol-2-yl)benzenesulfonamide], the IC50 in experiment [1] and in experiment [2] was 2000 to 10000 nM each time.

In the case of `CC(C)(C)c1cc(Nc2ccc(S(=O)(=O)Nc3nccs3)cc2)[nH]n1` [Compound 23, 4-(3-tert-butyl-1H-pyrazol-5-ylamino)-N-(thiazol-2-yl)benzenesulfonamide], the IC50 in experiment [1] and in experiment [2] was 2000 to 10000 nM in each case.

For `Nc1nc(Nc2ccc(S(=O)(=O)Nc3nccs3)cc2)nn1Cc1ccc(Cl)cc1` [Compound 24, 4-(5-amino-1-(4-chlorobenzyl)-1H-1,2,4-triazol-3-ylamino)-N-(thiazol-2-yl)benzenesulfonamide], the IC50 in experiment [1] was 2000 to 10000 nM; in experiment [2] it was over 10000 nM.

With `N#Cc1cnn(-c2ccc(F)c(Cl)c2)c1Nc1ccc(S(=O)(=O)Nc2nccs2)cc1` [Compound 25, 4-(1-(3-chloro-4-fluorophenyl)-4-cyano-1H-pyrazol-5-ylamino)-N-(thiazol-2-yl)benzenesulfonamide], the IC50 was under 2000 nM in experiment [1] and over 10000 nM in experiment [2].

`CC(C)(C)n1nc(Cc2ccc(Cl)cc2)cc1Nc1ccc(S(=O)(=O)Nc2nccs2)c(F)c1` [Compound 26, 4-(1-tert-butyl-3-(4-chlorobenzyl)-1H-pyrazol-5-ylamino)-2-fluoro-N-(thiazol-2-yl)benzenesulfonamide]: the IC50 in experiment [1] and in experiment [2] was under 2000 nM in each case.

Consider `O=S(=O)(Nc1nccs1)c1ccc(Nc2nnc(Cc3ccc(C(F)(F)F)cc3)s2)cc1` [Compound 27, N-(thiazol-2-yl)-4-(5-(4-(trifluoromethyl)benzyl)-1,3,4-thiadiazol-2-ylamino)benzenesulfonamide], for which the IC50 in experiment [1] was under 2000 nM; in experiment [2], over 10000 nM.

On to `O=S(=O)(Nc1nccs1)c1ccc(Nc2nnc(Cc3ccc(C(F)(F)F)cc3)o2)cc1` [Compound 28, N-(thiazol-2-yl)-4-(5-(4-(trifluoromethyl)benzyl)-1,3,4-oxadiazol-2-ylamino)benzenesulfonamide], for which the figures for the IC50 in experiment [1] and in experiment [2] were under 2000 nM and over 10000 nM, respectively.

Turning to `Cn1nc(CC2CCCCC2)cc1Nc1ccc(S(=O)(=O)Nc2nccs2)cc1` [Compound 29, 4-(3-(cyclohexylmethyl)-1-methyl-1H-pyrazol-5-ylamino)-N-(thiazol-2-yl)benzenesulfonamide], the IC50 in experiment [1] and in experiment [2] was under 2000 nM throughout.

(Values after US8124610B2, “Sodium channel inhibitors” (Icagen Inc., priority 2007, dated 2012).)
